Measurements taken from patent US20250066412A1, “CRYSTAL OF 4’-SUBSTITUTED NUCLEOSIDE, PREPARATION METHOD THEREFOR, COMPOSITION CONTAINING THE SAME, AND USE THEREOF” (HENAN GENUINE BIOTECH CO., LTD., priority 2022, published 2025).
Where two headings read alike, the source gives them in different places.

Assays:
[1] = test system: HIV; conditions: cited from earlier work; for EC50: E. Michailidis et al J. Biol. Chem. 2009, read-out: HIV inhibitory activity EC50; for inhibitory activities against HIV: literature reports
[2] = crystal form stability by XRPD after heating, drying or storage; conditions: for XRPD / crystal form after heating: heated to 120° C.
[3] = at 110° C., DSC and TGA studies, background; cited from earlier work
[4] = test system: HIV; conditions: CN109893536 B; read-out: anti-HIV activity EC50; cited from earlier work
[5] = heated to 160° C. under nitrogen protection
[6] = vacuum drying at room temperature for 24 h
[7] = heated to 130° C. under nitrogen

For `C#C[C@]1(CO)O[C@@H](n2cnc3c(N)nc(F)nc32)C[C@@H]1O` [Compound 1], the EC50 [1] is given as 0.05 nM, the “increase of HIV inhibitory activity by introduction of 2-fluorine” value ([1]; EFdA versus EdA) is given as 2200 times and the “inhibitory activities against HIV” value [1] is given as “significant inhibitory activities”.
With `C#C[C@]1(CO)O[C@@H](n2cnc3c(N)nc(F)nc32)[C@@H](F)[C@@H]1O` [type-XIV crystal] the “stability of the crystal form (overall finding)” value [2] was “unstable intermediate state” and the “crystal form after removal from the solvent environment” value ([2]; room temperature) was “transformed into the type-XIII crystal”.
With `C#C[C@]1(CO)O[C@@H](n2cnc3c(N)nc(F)nc32)[C@@H](F)[C@@H]1O` [type-V crystal] the weight loss (further heated from 140° C. to 240° C.) was 2.8%, the weight loss (heated to 140° C.) was 15.4% and the “crystal form after heating (variable-temperature XRPD)” value ([2]; further heated to 154° C.) was “transformed into another crystal”. For the same compound, the “crystal form after heating (variable-temperature XRPD)” value ([2]; heated to 90° C. and 130° C. under nitrogen protection) was “substantially transformed into an amorphous crystal” and the “crystallinity (variable-temperature XRPD)” value ([2]; purged with nitrogen for about 20 min) was “significant decrease in degree of crystallinity”.
For `C#C[C@]1(CO)O[C@@H](n2cnc3c(N)nc(F)nc32)[C@@H](F)[C@@H]1O` [type-XV crystal], the weight loss (heated to 120° C.) was 2.2% and the “XRPD / crystal form after heating” value [2] was “the crystal form transformation occurred”.
In the case of `C#C[C@]1(CO)O[C@@H](n2cnc3c(N)nc(F)nc32)[C@@H](F)[C@@H]1O` [type-I crystal], the weight loss (further heated from 110° C. to 200° C.) is reported as 3.5%, the weight loss (heated to 110° C.) is reported as 13.2% and the XRPD after heating ([2]; heated to 55° C. under nitrogen, cooled to room temperature, exposed to air) is reported as “the diffraction peak intensity of the sample was somewhat reduced”. For the same compound, the “crystal form after heating (XRPD)” value ([2]; heated to 100° C. under nitrogen protection) was “transformed into an amorphous crystal”.
For `C#C[C@]1(CO)O[C@@H](n2cnc3c(N)nc(F)nc32)[C@@H](F)[C@@H]1O` [crystal form A], the weight loss [3] is given as 9.0%.
For `C#C[C@]1(CO)O[C@@H](n2cnc3c(N)nc(F)nc32)[C@@H](F)[C@@H]1O` [type-IX crystal], the weight loss (heated to 160° C.) was 20.3%, the “crystallinity after heating (XRPD)” value ([2]; heated to 95° C. under nitrogen, cooled to room temperature, exposed to air) was “the degree of crystallinity was further decreased” and the “crystal form after heating (XRPD)” value [2, 5] was “its crystal form had been transformed”. The crystallinity after storage ([2]; left closed at room temperature for about 3 days) was “a reduced degree of crystallinity”.
In the case of `C#C[C@]1(CO)O[C@@H](n2cnc3c(N)nc(F)nc32)[C@@H](F)[C@@H]1O` [type-XVI crystal], the “weight loss (dehydration)” value [6] is reported as 14.39%, the “crystal form after heating (XRPD)” value ([2]; heated to 55° C. in a nitrogen atmosphere, held for 2 to 24 h) is reported as “the type-XVII crystal was also obtained” and the “crystal form after drying” value [2, 6] is reported as “turned into a monohydrate crystal form”.
With `C#C[C@]1(CO)O[C@@H](n2cnc3c(N)nc(F)nc32)[C@@H](F)[C@@H]1O` [type-IV crystal] the weight loss (heated to 120° C.) was 10.6%, the XRPD after storage ([2]; dried crystal left closed at room temperature for about 5 days) was “increased relative intensity of the diffraction peaks and increased number of diffraction peaks” and the “crystal form after heating (XRPD)” value ([2]; heated to 141° C. under nitrogen protection) was “transformed into a stable type-III crystal”. The XRPD after drying ([2]; vacuum dried at room temperature for 15 min) was “decreased relative intensity of the diffraction peaks”.
With `C#C[C@]1(CO)O[C@@H](n2cnc3c(N)nc(F)nc32)[C@@H](F)[C@@H]1O` [type-X crystal] the weight loss (further heated from 130° C. to 160° C.) was 4.5%, the weight loss (heated to 130° C.) was 7.9% and the “crystal form after heating (variable-temperature XRPD)” value ([2]; further heated to 145° C.) was “the crystal form was transformed”. The “XRPD / crystal form after heating” value [2] was “the position of the diffraction peak shifted” and the XRPD after heating [2, 7] was “the diffraction peak intensity was significantly reduced”.
For `C#C[C@]1(CO)O[C@@H](n2cnc3c(N)nc(F)nc32)[C@@H](F)[C@@H]1O` [type-VIII crystal], the weight loss (heated to 160° C.) was 10.6% and the “crystal form after heating (XRPD)” value [2, 5] was “the crystal form had been transformed”.
In the case of `C#C[C@]1(CO)O[C@@H](n2cnc3c(N)nc(F)nc32)[C@@H](F)[C@@H]1O` [compound (3), (2R,3R,4S,5R)-5-(6-amino-2-fluoro-9H-purin-9-yl)-2-ethynyl-4-fluoro-2-(hydroxymethyl)tetrahydrofuran-3-ol], the EC50 [4] is listed as 0.9 nM.
With `C#C[C@]1(CO)O[C@@H](n2cnc3c(N)nc(F)nc32)[C@@H](F)[C@@H]1O` [type-XVII crystal] the weight loss (dried at 90° C. for 1 to 24 h) was 5.47% and the change on drying ([2]; dried at 90° C. for 1 to 24 h) was “lost one molecule of water”.
With `C#C[C@]1(CO)O[C@@H](n2cnc3c(N)nc(F)nc32)[C@@H](F)[C@@H]1O` [type-VI crystal] the weight loss (further heated from 70° C. to 130° C.) was 5.9%, the weight loss (heated to 70° C.) was 4.9% and the “crystal form after heating (XRPD)” value [2, 5] was “the crystal form was transformed”.
For `C#C[C@]1(CO)O[C@@H](n2cnc3c(N)ncnc32)C[C@@H]1O` [EdA, 4′-ethynyl-2′-deoxyadenosine], the EC50 [1] is listed as 11 nM.
In the case of `C#C[C@]1(CO)O[C@@H](n2cnc3c(N)nc(F)nc32)[C@@H](F)[C@@H]1O` [type-XII crystal], the weight loss (heated to 120° C.) is reported as 59.6% and the “crystal form after drying” value ([2]; vacuum dried at room temperature for 10 min) is reported as “transformed into an amorphous crystal”.
In the case of `[N-]=[N+]=N[C@]1(CO)O[C@@H](n2ccc(N)nc2=O)[C@@H](F)[C@@H]1O` [compound (II)], the “inhibitory activities against HIV” value [1] is given as “significant inhibitory activities”.
With `C#C[C@]1(CO)O[C@@H](n2cnc3c(N)nc(F)nc32)[C@@H](F)[C@@H]1O` [type-VII crystal] the weight loss (heated to 130° C.) was 11.2% and the XRPD after heating [2, 7] was “the crystal form was transformed”.
With `C#C[C@]1(CO)O[C@@H](n2cnc3c(N)nc(F)nc32)[C@@H](F)[C@@H]1O` [type-III crystal] the weight loss (heated to 200° C.) was 1.2% and the “crystal form after heating (variable-temperature XRPD)” value ([2]; heated to 150° C. under nitrogen protection) was “the crystal form did not change”.
With `C#C[C@]1(CO)O[C@@H](n2cnc3c(N)nc(F)nc32)[C@@H](F)[C@@H]1O` [type-II crystal] the “crystal form after drying” value ([2]; vacuum dried at room temperature for half an hour) was “transformed into a type-III crystal”.
With `C#C[C@]1(CO)O[C@@H](n2cnc3c(N)nc(F)nc32)[C@@H](F)[C@@H]1O` [type-XIII crystal] the “crystal form in a solvent environment” value ([2]; left in a solvent environment at room temperature) was “transformed into the type-XIV crystal” and the “crystal form after drying” value ([2]; left open and dried at room temperature for about 2 h) was “the crystal form was transformed”.
`C#C[C@]1(CO)O[C@@H](n2cnc3c(N)nc(F)nc32)[C@@H](F)[C@@H]1O` [type-XI crystal] gave a weight loss (heated to 120° C.) of 19.3%.
